Assay results from patent EP0394122A2, “Use of tetracyclines to manufacture a medicament for the treatment and prevention of AIDS” (priority 1989, dated 1990).

Tests used:
[1] = test system: lignée lymphoblastoïde CEM clone 13; experiment: Cytotoxicity on non-infected CEM clone 13 cells (MTT viability); format: cell-based, humaines
Procedure: Dans une microplaque de 96 puits on dépose 25 µl/puits d'une solution de produit à tester ou de tampon phosphate isotonique (TPI) dans le cas des contrôles. Les produits sont étudiés à différentes concentrations (souvent 8), à raison de 4 puits par concentration. On ajoute alors 125 µl d'une suspension de cellules CEM dans le milieu RPMI contenant 10 % de sérum de veau foetal, 40 U/ml de pénicilline, 40 µg/ml de streptomycine et 5 µg/ml de polybrène (3500 cellules par puits) et les microplaques sont incubées une heure à 37°C, sous une atmosphère contenant 5 % de gaz carbonique. Pour chaque concentration, l'essai est partagé en 2 parties : une partie sur cellules infectées, pour la détermination de l'activité antivirale et l'autre partie sur cellules non infectées, pour déterminer la cytotoxicité des produits. On infecte alors la première série avec HIV (100 µl par puit d'une suspension de virus LAV-1-BRU contenant 200-300 TCID50) tandis que l'autre série reçoit 100 µl de milieu RPMI tel que défini précédemment. Au bout de 7 jours d'incubation, 175 µl de surnageant sont prélevés et rejetés. La viabilité cellulaire est déterminée selon une modification de la technique décrite par R. Pauwels et coll., J. Virol.
Les puits, contenant encore les cellules (infectées ou non infectées), reçoivent 10 µl d'une solution de MTT (méthylthiazoletétrazolium) à 5 mg/ml dans du tampon phosphate isotonique. Pendant une période d'incubation de 4 heures, le MTT est converti en un sel de formazan (bleu) à l'intérieur des cellules vivantes et proportionnellement à leur nombre, alors que rien n'apparaît dans les puits ne contenant plus que des cellules mortes. On ajoute alors 120 µl d'isopropanol (contenant 0,04 mole/l d'acide chlorhydrique) et les microplaques sont agitées jusqu'à la solubilisation du bleu de formazan. L'absorption à 540 nm est lue avec un lecteur automatique de réactions ELISA en microplaques.
Pour les essais de plus longue durée, on procède comme décrit précédemment jusqu'au jour 7. A ce moment, 100 µl de cellules sont prélevés pour mesurer la proportion de cellules vivantes et le restant est remis en culture avec du milieu frais contenant les produits aux mêmes concentrations. Cette opération est répétée tous les 4 jours.

lymphocytes humains = experiment: Antiproliferative activity (cytotoxicity) on non-infected human lymphocytes (MTT viability); format: cell-based; details: day 21
Procedure: La source des leucocytes humains est un stock congelé en N₂ liquide (100 x 10⁶ cellules/ampoule) de leucocytes obtenus sur cytaphérèse d'individus (donneurs) sains. Au moment de l'essai, les cellules sont décongelées, mises en suspension dans 80 % de sérum de veau foetal (SVF) et 20 % de diméthylsulfoxyde et centrifugées à 1000 rpm (10 minutes). Le culot est mis en suspension dans un milieu RPMI [contenant 10 % Lymphocult (Interleukine 2 en provenance de Biotest Diagnostic), 10 % de SVF, pénicilline et streptomycine, respectivement 40 U/ml et 40 µg/ml], à raison de 1 x 10⁶ cellules/ml. Habituellement, on utilise un flacon de culture cellulaire contenant 40 à 60 ml de cette suspension cellulaire. Les cellules sont incubées 4 jours en présence de phytohémagglutinine PHA (0,1 % DIFCO), à 37°C sous une atmosphère contenant 95 % d'air et 5 % de gaz carbonioue. Les cellules sont alors centrifugées, lavées une fois dans du milieu frais (ci-dessus) et remises en suspension dans le même milieu à 1 x 10⁶ cellules/ml [(RPMI 10 % de SVF, 10 % de Lymphocult-antibiotiques ci-dessus) mais contenant 10 U/ml d'anticorps anti-interferon (IFN α) 5 µg/ml de prolybrène.
200 µl de cette suspension cellulaire (200.000 cellules) sont déposés dans des puits d'une microplaque de cultures (à 96 puits). A chaque puits, on ajoute 25 µl du produit à tester [dilué 10 fois dans du tampon phosphate isotonique (TPI)] ou 25 µl du solvant TPI pour le contrôle. L'essai est fait en 2 séries : sur cellules infectées (pour déterminer l'activité antivirale) et sur cellules non infectées pour déterminer l'activité antiproliférative (cytotoxicité). On infecte alors avec 25 µl du virus HIV (souche LAV-BRU), alors que l'autre série reçoit (par puits) 25 µl du milieu (ci-dessus). Les cultures sont incubées 7 jours à 37°C (95 % d'air, 5 % de CO₂). 200 µl de surnageant sont alors prélevés, rejetés ou utilisés pour la détermination de l'activité transcriptase inverse. Les cellules du fond (sous 50 µl) sont alors soit testées pour leur viabilité (test MTT), soit additionnées de 200 µl de milieu frais (ci-dessus). Dans ce dernier cas, l'incubation est prolongée pendant encore 7 jours (test au jour 14). L'opération peut être répétée une semaine après (test au jour 21).

Row | Compound | Cellules non infectées Densité optique ([1]; 0,01 µg/ml, JOUR 14) | Cellules non infectées Densité optique ([1]; 0,01 µg/ml, JOUR 18) | Cellules non infectées Densité optique ([1]; 0,01 µg/ml, day 7) | Cellules non infectées Densité optique ([1]; 0,04 µg/ml, JOUR 14) | Cellules non infectées Densité optique ([1]; 0,04 µg/ml, JOUR 18) | Cellules non infectées Densité optique ([1]; 0,04 µg/ml, day 7) | Cellules non infectées Densité optique ([1]; 0,12 µg/ml, JOUR 14) | Cellules non infectées Densité optique ([1]; 0,12 µg/ml, JOUR 18) | Cellules non infectées Densité optique ([1]; 0,12 µg/ml, day 7) | Cellules non infectées Densité optique ([1]; 0,37 µg/ml, JOUR 14) | Cellules non infectées Densité optique ([1]; 0,37 µg/ml, JOUR 18) | Cellules non infectées Densité optique ([1]; 0,37 µg/ml, day 7) | Cellules non infectées Densité optique ([1]; 10 µg/ml, JOUR 14) | Cellules non infectées Densité optique ([1]; 10 µg/ml, JOUR 18) | Cellules non infectées Densité optique ([1]; 10 µg/ml, day 7) | Cellules non infectées Densité optique ([1]; 30 µg/ml, day 7) | Cellules non infectées Densité optique ([1]; 1,11 µg/ml, JOUR 14) | Cellules non infectées Densité optique ([1]; 1,11 µg/ml, JOUR 18) | Cellules non infectées Densité optique ([1]; 1,11 µg/ml, day 7) | Cellules non infectées Densité optique ([1]; 3,33 µg/ml, JOUR 14) | also measured
1 | doxycycline [Exemple 2] | 0,980 | 1,100 | 1,530 | 0,950 | 1,050 | 1,34 | 1,020 | 1,020 | 1,53 | 1,000 | 1,000 | 1,60 | 0,100 | 0,100 | 0,740 | 0,2 | 0,960 | 1,020 | 1,50 | 0,950 | Cellules non infectées Densité optique ([1]; 3,33 µg/ml, JOUR 18): 0,950; Cellules non infectées Densité optique ([1]; 3,33 µg/ml, day 7): 1,50; Cellules non infectées Densité optique (lymphocytes humains; 0,04 µg/ml): 0,775; Cellules non infectées Densité optique (lymphocytes humains; 0,12 µg/ml): 0,765; Cellules non infectées Densité optique (lymphocytes humains; 0,37 µg/ml): 0,853; Cellules non infectées Densité optique (lymphocytes humains; 10 µg/ml): 0,103; Cellules non infectées Densité optique (lymphocytes humains; 1,11 µg/ml): 0,835; Cellules non infectées Densité optique (lymphocytes humains; 3,33 µg/ml): 0,670
2 | CN(C)c1ccc(O)c2c1C[C@H]1C[C@H]3[C@H](N(C)C)C(O)=C(C(N)=O)C(=O)[C@@]3(O)C(O)=C1C2=O [Exemple 5, minocycline] | 1,100 | 1,050 | 1,590 | 1,250 | 1,050 | 1,650 | 1,200 | 1,100 | 1,750 | 1,250 | 1,150 | 1,670 | 0,100 | 0,100 | 0,480 | 0,420 | 1,200 | 1,100 | 1,760 | 0,350 | Cellules non infectées Densité optique ([1]; 3,33 µg/ml, JOUR 18): 0,400; Cellules non infectées Densité optique ([1]; 3,33 µg/ml, day 7): 1,650; Cellules non infectées Densité optique (lymphocytes humains; 0,04 µg/ml): 0,836; Cellules non infectées Densité optique (lymphocytes humains; 0,12 µg/ml): 0,775; Cellules non infectées Densité optique (lymphocytes humains; 0,37 µg/ml): 0,850; Cellules non infectées Densité optique (lymphocytes humains; 10 µg/ml): 0,833; Cellules non infectées Densité optique (lymphocytes humains; 1,11 µg/ml): 0,980; Cellules non infectées Densité optique (lymphocytes humains; 3,33 µg/ml): 0,900
